Measurements published in the supplement of paper PMC10307832.

Experiments:
Test in all cases: relative viability (nuclei count vs DMSO), 5 days (fraction); higher = more cells survive
[1] = compound: CC1CC(=O)N(C2=CN=C(N=C2N1C3CCCC3)NC4=C(C=C(C=C4)C(=O)NC5CCN(CC5)C)OC)C [NPK76-II-72-1]
How it was run: (§1)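 In 1536-well plates, lung cancer cell lines rested overnight at 37 °C before five library-drug doses (not always all listed), √10 apart, were pinned onto vehicle-anchored plates. Nuclei were counted with MetaXpress from 4× Hoechst images taken after 5 days without medium change. Viability compares treated-well with vehicle-well nuclei as a median over plates, and plates needed control CV below 25% plus at least one doubling to pass.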

[2] = compound: CC[C@@H]1C(=O)N(C)c2cnc(Nc3ccc(C(=O)NC4CCN(C)CC4)cc3OC)nc2N1C1CCCC1 [BI-2536]
How it was run: as §1

[3] = compound: CC[C@@H]1C(=O)N(C)c2cnc(Nc3ccc(C(=O)NC4CCN(C)CC4)cc3OC)nc2N1C1CCCC1 [BI-2536] + CC1(C)CCC(c2ccc(Cl)cc2)=C(CN2CCN(c3ccc(C(=O)NS(=O)(=O)c4ccc(N[C@H](CCN5CCOCC5)CSc5ccccc5)c(S(=O)(=O)C(F)(F)F)c4)cc3)CC2)C1 [Navitoclax] (partner 0.5 µM)
How it was run: (§2)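 Lung cancer cell lines in 1536-well plates got either a single drug or a fixed anchor-drug dose together with five library-drug doses (not always all listed) in √10 steps, by pin tool, on the day after seeding. Nuclei were counted after 5 days, and relative viability is the treated-to-vehicle ratio of nuclei counts. Values are medians of duplicate plates.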

[4] = compound: CC1CC(=O)N(C2=CN=C(N=C2N1C3CCCC3)NC4=C(C=C(C=C4)C(=O)NC5CCN(CC5)C)OC)C [NPK76-II-72-1] + CC(=O)Nc1cccc(-n2c(=O)n(C3CC3)c(=O)c3c(Nc4ccc(I)cc4F)n(C)c(=O)c(C)c32)c1 [Trametinib] (partner 0.02 µM)
How it was run: as §2

Cell Line	relative viability ([1]; 0.01 µM)	relative viability ([1]; 0.03162 µM)	relative viability ([1]; 0.1 µM)	relative viability ([1]; 0.3162 µM)	relative viability ([1]; 1 µM)	relative viability ([2]; 0.01 µM)	relative viability ([2]; 0.03162 µM)	relative viability ([2]; 0.1 µM)	relative viability ([2]; 0.3162 µM)	relative viability ([2]; 1 µM)	relative viability ([3]; first compound 0.01 µM)	relative viability ([3]; first compound 0.03162 µM)	relative viability ([3]; first compound 0.1 µM)	relative viability ([3]; first compound 0.3162 µM)	relative viability ([3]; first compound 1 µM)	relative viability ([4]; first compound 0.01 µM)	relative viability ([4]; first compound 0.03162 µM)	relative viability ([4]; first compound 0.1 µM)	relative viability ([4]; first compound 0.3162 µM)	relative viability ([4]; first compound 1 µM)
NCI-H1437	0.981	0.972	0.952	0.964	1.01	0.981	0.911	0.804	0.184	0.174	1.08	1.08	0.714	0.145	0.142	0.492	0.533	0.557	0.53	0.616
NCI-H460	0.98	1.04	1.02	0.983	0.992	1.05	1.03	0.552	0.0431	0.0258	1.19	1.05	0.0795	0.0095	0.0103	0.271	0.14	0.141	0.123	0.174
NCI-H1666	0.957	0.992	0.959	0.845	1.11	0.945	0.959	0.9	0.466	0.377	1.13	0.905	0.702	0.262	0.214	0.851	0.859	0.847	0.732	1.05
NCI-H1651	0.953	0.939	0.925	0.979	1.02	0.961	0.947	0.915	0.3	0.109	1.14	1.13	0.683	0.0829	0.055	0.83	0.82	0.839	0.794	0.816
NCI-H1755	0.97	0.998	1	0.979	1.02	0.994	0.974	0.695	0.332	0.291	1	0.909	0.903	0.152	0.127	0.756	0.752	0.75	0.752	0.799
HARA	0.922	0.987	0.845	0.924	1.05	1.01	1.15	0.823	0.141	0.159	1.15	1.17	0.98	0.103	0.0669	0.83	0.864	0.619		0.856
NCI-H596	0.99	0.97	1.02	1.02	1.01	0.963	1.11	0.747	0.402	0.286	0.997	1.21	0.978	0.19	0.184	0.764	0.787	0.776	0.82	0.803
NCI-H23	0.944	1.06	0.854	0.957	1.11	0.926	0.797	0.179	0.141	0.17	0.894	0.632	0.567	0.192	0.127	0.361	0.424	0.271	0.342	0.38
